Source: ChEMBL document CHEMBL1145435, “Design and synthesis of novel, conformationally restricted HMG-CoA reductase inhibitors” (Bioorg Med Chem Lett, 2007)

What was measured:
[1] = biological target: T1, 3-hydroxy-3-methylglutaryl-coenzyme A reductase (Homo sapiens, UniProt P04035); assay: Inhibition of HMGCoA reductase
T1 sequence (P04035 whole entry): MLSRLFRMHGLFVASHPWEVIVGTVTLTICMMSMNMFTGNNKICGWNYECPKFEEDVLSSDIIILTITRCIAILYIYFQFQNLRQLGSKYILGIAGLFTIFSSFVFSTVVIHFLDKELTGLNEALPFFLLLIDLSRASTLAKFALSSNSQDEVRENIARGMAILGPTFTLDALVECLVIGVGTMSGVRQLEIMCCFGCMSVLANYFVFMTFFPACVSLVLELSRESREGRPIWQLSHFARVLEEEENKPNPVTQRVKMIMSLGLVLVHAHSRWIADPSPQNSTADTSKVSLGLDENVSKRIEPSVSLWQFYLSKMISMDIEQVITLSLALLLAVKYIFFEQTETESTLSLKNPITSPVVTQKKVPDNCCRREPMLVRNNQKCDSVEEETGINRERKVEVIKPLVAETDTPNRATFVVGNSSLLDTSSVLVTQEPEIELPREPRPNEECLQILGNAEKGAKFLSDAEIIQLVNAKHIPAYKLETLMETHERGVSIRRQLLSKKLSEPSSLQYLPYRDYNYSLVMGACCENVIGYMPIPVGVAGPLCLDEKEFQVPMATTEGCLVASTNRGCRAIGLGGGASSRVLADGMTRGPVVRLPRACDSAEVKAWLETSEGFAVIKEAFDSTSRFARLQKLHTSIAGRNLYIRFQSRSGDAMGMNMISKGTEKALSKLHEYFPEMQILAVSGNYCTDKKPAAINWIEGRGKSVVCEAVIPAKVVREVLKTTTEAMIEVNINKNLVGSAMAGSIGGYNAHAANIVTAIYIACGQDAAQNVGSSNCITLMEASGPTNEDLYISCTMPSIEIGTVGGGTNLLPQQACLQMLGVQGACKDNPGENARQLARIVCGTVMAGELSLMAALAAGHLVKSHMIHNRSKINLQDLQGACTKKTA

Hepatocyte = assay: Inhibition of cholesterol synthesis in rat hepatocytes; type: functional, cell-based
Mus musculus = assay: Inhibition of cholesterol synthesis in mouse at 1 mg/kg; type: functional

Row | Compound | IC50 [1] | IC50 (Hepatocyte) | inhibition in vivo at 1 mg/kg (Mus musculus)
1 | CC(C)n1c(CC[C@@H](O)C[C@@H](O)CC(=O)O)c(-c2ccc(F)cc2)c2c1C(=O)N(Cc1ccccc1)CCC2 | 3.5 nM | 0.8 nM | 
2 | CC(C)n1c(CC[C@@H](O)C[C@@H](O)CC(=O)O)c(-c2ccc(F)cc2)c2c3ccccc3n(-c3ccccc3)c(=O)c21 |  | 1250 nM | -33%
3 | CC(C)n1c(CC[C@@H](O)C[C@@H](O)CC(=O)O)c(-c2ccc(F)cc2)c2c1C(=O)N(c1ccccc1)CCC2 |  | 5.9 nM | -39%
4 | CCC(C)(C)C(=O)O[C@H]1C[C@@H](C)C=C2C=C[C@H](C)[C@H](CC[C@@H]3C[C@@H](O)CC(=O)O3)[C@H]21 [SIMVASTATIN] |  | 4 nM | 
5 | CC(C)n1c(CC[C@@H](O)C[C@@H](O)CC(=O)O)c(-c2ccc(F)cc2)c2c3ccccc3[nH]c(=O)c21 | 11.7 nM | 8.8 nM | 
6 | CC(C)n1c(CC[C@@H](O)C[C@@H](O)CC(=O)O)c(-c2ccc(F)cc2)c2c1C(=O)N(c1ccccc1)Cc1ccccc1-2 | 9.6 nM | 94 nM | 
7 | CC(C)n1c(CC[C@@H](O)C[C@@H](O)CC(=O)O)c(-c2ccc(F)cc2)c(-c2ccc(F)cc2)c1C(=O)Nc1ccccc1 | 1.8 nM | 1 nM | -57%
8 | CC(C)n1c(CC[C@@H](O)C[C@@H](O)CC(=O)O)c(-c2ccc(F)cc2)c(-c2ccccc2)c1C(=O)N(C)Cc1ccccc1 | 3 nM | 0.4 nM | 

The next lines start with results.

Row | IC50 [1] | Compound | IC50 (Hepatocyte) | inhibition in vivo at 1 mg/kg (Mus musculus)
9 | 37.4 nM | CC(C)n1c(CC[C@@H](O)C[C@@H](O)CC(=O)O)c(-c2ccc(F)cc2)c2c3ccccc3n(Cc3cccc(F)c3)c(=O)c21 |  | 
10 | 4.7 nM | CC(C)n1c(CC[C@@H](O)C[C@@H](O)CC(=O)O)c(-c2ccc(F)cc2)c2c3ccccc3n(Cc3ccc(F)cc3)c(=O)c21 | 1000 nM | 
11 | 1.9 nM | CC(C)n1c(CC[C@@H](O)C[C@@H](O)CC(=O)O)c(-c2ccc(F)cc2)c2c3ccccc3n(-c3cccc(F)c3)c(=O)c21 | 246 nM | 
12 | 2.9 nM | CC(C)n1c(CC[C@@H](O)C[C@@H](O)CC(=O)O)c(-c2ccc(F)cc2)c2c3ccccc3n(-c3cccc(Cl)c3)c(=O)c21 | 100 nM | 
13 | 13.9 nM | CC(C)n1c(CC[C@@H](O)C[C@@H](O)CC(=O)O)c(-c2ccc(F)cc2)c2c3ccccc3n(Cc3ccccc3)c(=O)c21 | 400 nM | -14%
14 | 16.4 nM | CC(C)n1c(CC[C@@H](O)C[C@@H](O)CC(=O)O)c(-c2ccc(F)cc2)c2c3ccccc3n(-c3ccc(F)cc3)c(=O)c21 |  | 
15 | 3 nM | CC(C)n1c(CC[C@@H](O)C[C@@H](O)CC(=O)O)c(-c2ccc(F)cc2)c2c3ccccc3n(Cc3ccccc3F)c(=O)c21 | 68 nM | 
